Measurements: patent publication US20240058422A1, “GLUCAGON-LIKE PEPTIDE-1 RECEPTOR ANTAGONISTS” (INDIANA UNIVERSITY RESEARCH AND TECHNOLOGY CORPORATION, priority 2022, published 2024)
≈ marks a conversion by molar mass, not a printed value. Like-named read-outs stand apart in the source and are kept apart here. Starred links: 1 amine or outer side, 2 acyl side, 3 side chain; linkers in the order of their positions; H or OH if unused. Non-standard residues stand in square brackets, D forms with d. Residues, ends and D or L forms follow the SMILES beside them. Groups on a side chain read outwards from the residue. *: point of attachment. γGlu = O=C(O)[C@H](CCC(=O)[*:2])N[*:1]; Palmitoyl = CCCCCCCCCCCCCCCC(=O)*; AEEA = NCCOCCOCC(=O)O

Tests used:
[1] = target: GLP-1R (Homo sapiens, UniProt P43220); assay: GLP-1 receptor-mediated cAMP induction, luciferase reporter gene antagonism assay; type: cell-based; set-up: host or cells: HEK 293; conditions: antagonism of 0.05 nM GLP-1, HEK 293 cells
In short: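 HEK 293 cells cotransfected with human GLP-1 receptor and CRE-luciferase were serum-deprived 16 h, then given serial peptide dilutions followed by 0.05 nM GLP-1 and incubated 5 h at 37° C.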

[2] = physchem
[3] = pH 7.7, Solubility [mg/mL] 80 mM AmBicarb pH7.7
[4] = Table 3, amino acid substitution variants of Jant4-K40, read-out: Bioactivity IC50
[5] = pH 7.7, Solubility 80 mM AmeBicarb pH7.7

Sequence of GLP-1R (P43220 24-463): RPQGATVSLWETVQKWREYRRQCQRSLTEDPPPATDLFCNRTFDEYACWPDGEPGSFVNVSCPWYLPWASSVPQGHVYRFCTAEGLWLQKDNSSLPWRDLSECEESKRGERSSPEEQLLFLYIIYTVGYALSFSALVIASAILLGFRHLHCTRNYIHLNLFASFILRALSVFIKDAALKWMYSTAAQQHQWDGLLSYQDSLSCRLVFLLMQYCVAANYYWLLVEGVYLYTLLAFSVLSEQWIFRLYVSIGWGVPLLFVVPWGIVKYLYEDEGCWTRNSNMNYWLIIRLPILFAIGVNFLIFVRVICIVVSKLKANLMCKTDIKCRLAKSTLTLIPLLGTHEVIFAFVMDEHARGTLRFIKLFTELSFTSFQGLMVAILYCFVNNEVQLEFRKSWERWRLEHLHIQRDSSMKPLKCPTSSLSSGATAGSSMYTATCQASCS

SMILES | IC50 [1, 4] | solubility [2, 5] | other results
CCCCCCCCCCCCCCCC(=O)NCCCC[C@H](NC(=O)[C@H](CO)NC(=O)[C@@H]1CCCN1C(=O)[C@@H]1CCCN1C(=O)[C@@H]1CCCN1C(=O)[C@H](C)NC(=O)CNC(=O)[C@H](CO)NC(=O)[C@H](CO)NC(=O)[C@@H]1CCCN1C(=O)CNC(=O)CNC(=O)C(C)(C)NC(=O)[C@H](CCCCN)NC(=O)[C@H](CC(C)C)NC(=O)[C@H](Cc1c[nH]c2ccccc12)NC(=O)[C@H](C)NC(=O)[C@@H](NC(=O)[C@H](Cc1ccccc1)NC(=O)[C@H](CCC(=O)O)NC(=O)[C@H](CCCNC(=N)N)NC(=O)[C@@H](NC(=O)[C@H](C)NC(=O)[C@H](CCC(N)=O)NC(=O)[C@H](CCC(=O)O)NC(=O)[C@H](CCC(=O)O)NC(=O)[C@H](CC(C)C)NC(=O)[C@H](Cc1ccc(O)cc1)NC(=O)[C@H](CO)NC(=O)[C@H](CO)NC(=O)[C@@H](NC(=O)[C@@H](N)CC(=O)O)C(C)C)C(C)C)[C@@H](C)CC)C(N)=O [SEQ ID NO: 43] |  |  | IC50 ([1]; Table 4, Aib variants of 9-40am Jant4 K40[C16], read-out: Bioactivity IC50): 13 nM; solubility [2, 3]: 18.9 mg/mL (≈ 5.21 mM); solubility ([2]; pH 7.7, Solubility [mg/mL] PBS pH7.7): 0.2 mg/mL (≈ 0.0552 mM)
CCCCCCCCCCCCCCCC(=O)N[C@@H](CCC(=O)NCCOCCOCC(=O)NCCCC[C@H](NC(=O)[C@H](CO)NC(=O)[C@@H]1CCCN1C(=O)[C@@H]1CCCN1C(=O)[C@@H]1CCCN1C(=O)[C@H](C)NC(=O)CNC(=O)[C@H](CO)NC(=O)[C@H](CO)NC(=O)[C@@H]1CCCN1C(=O)CNC(=O)CNC(=O)[C@H](CCCNC(=N)N)NC(=O)[C@@H](NC(=O)[C@H](CC(C)C)NC(=O)[C@H](Cc1c[nH]c2ccccc12)NC(=O)[C@H](CCC(=O)O)NC(=O)[C@@H](NC(=O)[C@H](Cc1ccccc1)NC(=O)[C@H](CCC(=O)O)NC(=O)[C@H](CCCNC(=N)N)NC(=O)[C@@H](NC(=O)[C@H](C)NC(=O)[C@H](CCC(N)=O)NC(=O)[C@H](CCC(=O)O)NC(=O)[C@H](CCC(=O)O)NC(=O)[C@H](CC(C)C)NC(=O)[C@H](Cc1ccc(O)cc1)NC(=O)[C@H](CCCNC(=N)N)NC(=O)[C@H](CO)NC(=O)[C@@H](NC(=O)[C@@H](N)CC(=O)O)C(C)C)C(C)C)[C@@H](C)CC)C(C)C)C(=O)O)C(=O)O [compound 16] (H-DVSRYLEEQAVREFIEWLVRGGPSSGAPPPSK([AEEA-γGlu-Palmitoyl])-OH; N-terminus assumed) | 18 nM | > 20 mg/mL | 
CCCCCCCCCCCCCCCC(=O)N[C@@H](CCC(=O)NCCOCCOCC(=O)NCCOCCOCC(=O)NCCCC[C@H](NC(=O)[C@H](CO)NC(=O)[C@@H]1CCCN1C(=O)[C@@H]1CCCN1C(=O)[C@@H]1CCCN1C(=O)[C@H](C)NC(=O)CNC(=O)[C@H](CO)NC(=O)[C@H](CO)NC(=O)[C@@H]1CCCN1C(=O)CNC(=O)CNC(=O)[C@H](CCCCN)NC(=O)[C@@H](NC(=O)[C@H](CC(C)C)NC(=O)[C@H](Cc1c[nH]c2ccccc12)NC(=O)[C@H](C)NC(=O)[C@@H](NC(=O)[C@H](Cc1ccccc1)NC(=O)[C@H](CCC(=O)O)NC(=O)[C@H](CCCNC(=N)N)NC(=O)[C@@H](NC(=O)[C@H](C)NC(=O)[C@H](CCC(N)=O)NC(=O)[C@H](CCC(=O)O)NC(=O)[C@H](CCC(=O)O)NC(=O)[C@H](CC(C)C)NC(=O)[C@H](Cc1ccc(O)cc1)NC(=O)[C@H](CO)NC(=O)[C@H](CO)NC(=O)[C@@H](NC(=O)[C@@H](N)CC(=O)O)C(C)C)C(C)C)[C@@H](C)CC)C(C)C)C(N)=O)C(=O)O [compound 48] (H-DVSSYLEEQAVREFIAWLVKGGPSSGAPPPSK([AEEA-AEEA-γGlu-Palmitoyl])-NH2; N-terminus assumed) |  |  | IC50 ([1]; Table 2, C16 linker variants of 9-40amide Jant4 K40[X], read-out: Biactivity IC50): 9 nM; solubility [2, 3]: 9 mg/mL (≈ 2.22 mM)
CCCCCCCCCCCCCCCC(=O)NCCCC[C@H](NC(=O)[C@H](CO)NC(=O)[C@@H]1CCCN1C(=O)[C@@H]1CCCN1C(=O)[C@@H]1CCCN1C(=O)[C@H](C)NC(=O)CNC(=O)[C@H](CO)NC(=O)[C@H](CO)NC(=O)[C@@H]1CCCN1C(=O)CNC(=O)CNC(=O)[C@H](CCCCN)NC(=O)[C@@H](NC(=O)[C@H](CC(C)C)NC(=O)[C@H](Cc1c[nH]c2ccccc12)NC(=O)[C@H](C)NC(=O)[C@@H](NC(=O)[C@H](Cc1ccccc1)NC(=O)[C@H](CCC(=O)O)NC(=O)[C@H](CCCNC(=N)N)NC(=O)[C@H](NC(=O)[C@H](C)NC(=O)[C@H](CCC(N)=O)NC(=O)[C@H](CCC(=O)O)NC(=O)[C@H](CCC(=O)O)NC(=O)[C@H](CC(C)C)NC(=O)[C@H](Cc1ccc(O)cc1)NC(=O)[C@H](CO)NC(=O)[C@H](CO)NC(=O)[C@@H](NC(=O)[C@@H](N)CC(=O)O)C(C)C)C(C)C)[C@@H](C)CC)C(C)C)C(N)=O [compound 50] (H-DVSSYLEEQA[dV]REFIAWLVKGGPSSGAPPPSK(Palmitoyl)-NH2) |  |  | IC50 ([1]; Table 5, d-AA variants of 9-40am Jant4 K40[C16], read-out: Bioactivity KC50): 124 nM; solubility ([2]; pH 7.7, Solubility [mg/mL] 80 mM/AmBicarb pH7.7): > 20 mg/mL
CCCCCCCCCCCCCCCC(=O)NCCCC[C@H](NC(=O)[C@H](CO)NC(=O)[C@@H]1CCCN1C(=O)[C@@H]1CCCN1C(=O)[C@@H]1CCCN1C(=O)[C@H](C)NC(=O)CNC(=O)[C@H](CO)NC(=O)[C@H](CO)NC(=O)[C@@H]1CCCN1C(=O)CNC(=O)CNC(=O)[C@H](CCCNC(=N)N)NC(=O)[C@@H](NC(=O)[C@H](CC(C)C)NC(=O)[C@H](Cc1c[nH]c2ccccc12)NC(=O)[C@H](C)NC(=O)[C@@H](NC(=O)[C@H](Cc1ccccc1)NC(=O)[C@H](CCC(=O)O)NC(=O)[C@H](CCCNC(=N)N)NC(=O)[C@@H](NC(=O)[C@H](C)NC(=O)[C@H](CCC(N)=O)NC(=O)[C@H](CCC(=O)O)NC(=O)[C@H](CCC(=O)O)NC(=O)[C@H](CC(C)C)NC(=O)[C@H](Cc1ccc(O)cc1)NC(=O)[C@H](CO)NC(=O)[C@H](CO)NC(=O)[C@@H](NC(=O)[C@@H](N)CC(=O)O)C(C)C)C(C)C)[C@@H](C)CC)C(C)C)C(N)=O [compound 69] (H-DVSSYLEEQAVREFIAWLVRGGPSSGAPPPSK(Palmitoyl)-NH2) | 16 nM | 13.7 mg/mL (≈ 3.73 mM) | 
CCCCCCCCCCCCCCCC(=O)NCCCC[C@H](NC(=O)[C@H](CO)NC(=O)[C@@H]1CCCN1C(=O)[C@@H]1CCCN1C(=O)[C@@H]1CCCN1C(=O)[C@H](C)NC(=O)CNC(=O)[C@H](CO)NC(=O)[C@H](CO)NC(=O)[C@@H]1CCCN1C(=O)CNC(=O)CNC(=O)[C@H](CCCNC(=N)N)NC(=O)[C@@H](NC(=O)[C@H](CC(C)C)NC(=O)[C@H](Cc1c[nH]c2ccccc12)NC(=O)[C@H](C)NC(=O)[C@@H](NC(=O)[C@H](Cc1ccccc1)NC(=O)[C@H](CCC(=O)O)NC(=O)[C@H](CCCNC(=N)N)NC(=O)[C@@H](NC(=O)[C@H](C)NC(=O)[C@H](CCC(N)=O)NC(=O)[C@H](CCC(=O)O)NC(=O)[C@H](CCC(=O)O)NC(=O)[C@H](CC(C)C)NC(=O)[C@H](Cc1ccc(O)cc1)NC(=O)[C@H](CCCNC(=N)N)NC(=O)[C@H](CO)NC(=O)[C@@H](NC(=O)[C@@H](N)CC(=O)O)C(C)C)C(C)C)[C@@H](C)CC)C(C)C)C(N)=O [compound 73] (H-DVSRYLEEQAVREFIAWLVRGGPSSGAPPPSK(Palmitoyl)-NH2; N-terminus assumed) | 27 nM | < 0.1 mg/mL | 
CCCCCCCCCCCCCCCC(=O)NCCCC[C@H](NC(=O)[C@H](CO)NC(=O)[C@@H]1CCCN1C(=O)[C@@H]1CCCN1C(=O)[C@@H]1CCCN1C(=O)[C@H](C)NC(=O)CNC(=O)[C@H](CO)NC(=O)[C@H](CO)NC(=O)[C@@H]1CCCN1C(=O)CNC(=O)CNC(=O)[C@H](CCCNC(=N)N)NC(=O)[C@@H](NC(=O)[C@H](CC(C)C)NC(=O)[C@H](Cc1c[nH]c2ccccc12)NC(=O)[C@H](CCC(=O)O)NC(=O)[C@@H](NC(=O)[C@H](Cc1ccccc1)NC(=O)[C@H](CCC(=O)O)NC(=O)[C@H](CCCNC(=N)N)NC(=O)[C@@H](NC(=O)[C@H](C)NC(=O)[C@H](CCC(N)=O)NC(=O)[C@H](CCC(=O)O)NC(=O)[C@H](CCC(=O)O)NC(=O)[C@H](CC(C)C)NC(=O)[C@H](Cc1ccc(O)cc1)NC(=O)[C@H](CCCNC(=N)N)NC(=O)[C@H](CO)NC(=O)[C@@H](NC(=O)[C@@H](N)CC(=O)O)C(C)C)C(C)C)[C@@H](C)CC)C(C)C)C(N)=O [compound 74] (H-DVSRYLEEQAVREFIEWLVRGGPSSGAPPPSK(Palmitoyl)-NH2; N-terminus assumed) | 15 nM | > 20 mg/mL | 
CCCCCCCCCCCCCCCC(=O)N[C@@H](CCC(=O)NCCOCCOCC(=O)NCCCC[C@H](NC(=O)[C@H](CO)NC(=O)[C@@H]1CCCN1C(=O)[C@@H]1CCCN1C(=O)[C@@H]1CCCN1C(=O)[C@H](C)NC(=O)CNC(=O)[C@H](CO)NC(=O)[C@H](CO)NC(=O)[C@@H]1CCCN1C(=O)CNC(=O)CNC(=O)[C@H](CCCNC(=N)N)NC(=O)[C@@H](NC(=O)[C@H](CC(C)C)NC(=O)[C@H](Cc1c[nH]c2ccccc12)NC(=O)[C@H](C)NC(=O)[C@@H](NC(=O)[C@H](Cc1ccccc1)NC(=O)[C@H](CCC(=O)O)NC(=O)[C@H](CCCNC(=N)N)NC(=O)[C@@H](NC(=O)[C@H](C)NC(=O)[C@H](CCC(N)=O)NC(=O)[C@H](CCC(=O)O)NC(=O)[C@H](CCC(=O)O)NC(=O)[C@H](CC(C)C)NC(=O)[C@H](Cc1ccc(O)cc1)NC(=O)[C@H](CO)NC(=O)[C@H](CO)NC(=O)[C@@H](NC(=O)[C@@H](N)CC(=O)O)C(C)C)C(C)C)[C@@H](C)CC)C(C)C)C(=O)O)C(=O)O [compound 77] (H-DVSSYLEEQAVREFIAWLVRGGPSSGAPPPSK([AEEA-γGlu-Palmitoyl])-OH) | 13 nM | > 20 mg/mL | 
